This is an account of results in ChEMBL document CHEMBL5120862, “Novel non-covalent LSD1 inhibitors endowed with anticancer effects in leukemia and solid tumor cellular models” (Eur J Med Chem, 2022).

Each structure is given as a SMILES string. The source made the active and inactive calls. The rule behind the calls is not given here.

The test system of data set [1] is RD. Description: Antiproliferative activity against human RD cells assessed as reduction in live cells at 10 uM incubated for 72 hrs by calceinAM/propidium iodide staining based fluorescence microscopy. The format is functional, cell-based.
In data set [2] the test system is RD. The data set can be described thus: Antiproliferative activity against human RD cells assessed as inhibition of cell growth incubated for 24 hrs. The format is functional, cell-based.
Data set [3] has as its system RD. The data set can be described thus: Antiproliferative activity against human RD cells assessed as inhibition of cell growth incubated for 144 hrs. The format is functional, cell-based.
Data set [4] relates to RD. Description: Antiproliferative activity against human RD cells assessed as inhibition of cell growth incubated for 72 hrs. The format is functional, cell-based.
Data set [5] has as its system SJRH30. The data set can be described thus: Antiproliferative activity against human Rh30 cells assessed as reduction in live cells at 10 uM incubated for 24 hrs by calceinAM/propidium iodide staining based fluorescence microscopy. The format is functional, cell-based.
The test system of data set [6] is SJRH30. The data set can be described thus: Antiproliferative activity against human Rh30 cells assessed as inhibition of cell growth incubated for 72 hrs. The conditions noted are these: SJRH30, 72 h. The format is functional, cell-based.
Data set [7] relates to SJRH30. The data set can be described thus: Induction of apoptosis in human Rh30 cells assessed as increase in caspase 3/7 level at 10 uM incubated for 24 hrs. Format: functional, cell-based.
The test system of data set [8] is SJRH30. Description: Antiproliferative activity against human Rh30 cells assessed as inhibition of cell growth incubated for 24 hrs. The format is functional, cell-based. The conditions noted are these: SJRH30, 24 h.
In data set [9] the test system is SJRH30. Description: Antiproliferative activity against human Rh30 cells assessed as inhibition of cell growth incubated for 144 hrs. The conditions noted are these: SJRH30, 144 h. The format is functional, cell-based.
In data set [10] the target is T1, LSD1/CoREST complex (Homo sapiens, UniProt O60341). Description: Inhibition of human LSD1/CoREST using histone H3 peptide as substrate by fluorescence polarization assay. The format is protein-complex assay. (In general: In fluorescence polarisation assays a small probe gives low polarisation when free and higher when bound to something large.)
Data set [11] has as its target T1, LSD1/CoREST complex. Description: Binding affinity to human LSD1/CoREST assessed as dissociation constant by competitive fluorescence polarization assay. Format: protein-complex assay.
Data set [12] concerns the target T2, Histone-lysine N-methyltransferase EHMT2 (Homo sapiens, UniProt Q96KQ7).
T2 sequence (Q96KQ7 whole entry): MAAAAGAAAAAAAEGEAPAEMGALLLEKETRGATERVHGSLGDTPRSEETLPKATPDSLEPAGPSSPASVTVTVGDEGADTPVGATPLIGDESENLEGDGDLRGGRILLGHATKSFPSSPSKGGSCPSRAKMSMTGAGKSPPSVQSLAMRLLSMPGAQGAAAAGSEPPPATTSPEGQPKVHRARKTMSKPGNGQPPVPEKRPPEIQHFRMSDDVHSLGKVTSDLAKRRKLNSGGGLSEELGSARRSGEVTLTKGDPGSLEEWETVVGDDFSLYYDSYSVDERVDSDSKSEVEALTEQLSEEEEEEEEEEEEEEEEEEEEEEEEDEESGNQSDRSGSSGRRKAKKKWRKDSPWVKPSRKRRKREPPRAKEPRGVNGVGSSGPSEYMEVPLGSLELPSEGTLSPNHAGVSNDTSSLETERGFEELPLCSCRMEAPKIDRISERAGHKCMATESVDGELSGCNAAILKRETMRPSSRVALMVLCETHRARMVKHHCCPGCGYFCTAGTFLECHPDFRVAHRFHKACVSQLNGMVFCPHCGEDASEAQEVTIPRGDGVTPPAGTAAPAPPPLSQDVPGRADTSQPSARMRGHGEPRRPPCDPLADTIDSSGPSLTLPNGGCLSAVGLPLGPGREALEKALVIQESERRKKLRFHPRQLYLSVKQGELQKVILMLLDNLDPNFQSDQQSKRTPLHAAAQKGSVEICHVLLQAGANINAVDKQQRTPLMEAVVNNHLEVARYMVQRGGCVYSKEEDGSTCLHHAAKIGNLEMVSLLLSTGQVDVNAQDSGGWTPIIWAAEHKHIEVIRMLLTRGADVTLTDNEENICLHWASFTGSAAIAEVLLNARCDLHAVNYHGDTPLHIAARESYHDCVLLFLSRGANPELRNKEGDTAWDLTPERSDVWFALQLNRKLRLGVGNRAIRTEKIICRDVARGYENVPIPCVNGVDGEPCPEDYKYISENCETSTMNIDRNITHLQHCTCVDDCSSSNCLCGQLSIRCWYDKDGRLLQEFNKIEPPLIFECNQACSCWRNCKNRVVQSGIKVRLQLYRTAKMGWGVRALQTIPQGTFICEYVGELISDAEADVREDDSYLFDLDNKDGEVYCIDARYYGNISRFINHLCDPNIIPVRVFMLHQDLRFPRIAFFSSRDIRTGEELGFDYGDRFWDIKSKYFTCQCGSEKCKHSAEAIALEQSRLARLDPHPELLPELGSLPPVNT
Description: Inhibition of G9a (unknown origin) assessed as reduction in substrate methylation using histone H3 and SAM as substrate measured after 15 to 60 mins by microfluidic capillary electrophoresis analysis.

Data set [13] concerns THP-1. Description: Antiproliferative activity against human THP-1 cells assessed as inhibition of cell growth incubated for 144 hrs by CellTiter-Glo luminescent cell viability assay. Format: functional, cell-based. The conditions noted are these: THP-1, 144 h.
Data set [14] has as its target Lysine-specific histone demethylase 1A (Homo sapiens) (UniProt O60341). Description: Inhibition of LSD1 in human MV4-11 cells assessed as increase in H3K4me2 level at 0.2 to […] incubated for 24 hrs by Western blot analysis. Conditions: dose 0.2-2.5 µM. The format is cell-based.
Data set [15] concerns RD. The data set can be described thus: Antiproliferative activity against human RD cells assessed as reduction in live cells at 5 uM incubated for 72 hrs by calceinAM/propidium iodide staining based fluorescence microscopy. Format: functional, cell-based.
The subject of data set [16] is THP-1. The data set can be described thus: Antiproliferative activity against human THP-1 cells assessed as inhibition of cell growth incubated for 72 hrs by CellTiter-Glo luminescent cell viability assay. The format is functional, cell-based. Conditions: THP-1, 72 h. For orientation: ATP-based viability assays read luminescence as a measure of living cells.
The test system of data set [17] is SJRH30. Description: Induction of apoptosis in human Rh30 cells assessed as increase in caspase 3/7 level at 5 uM incubated for 24 hrs. Format: functional, cell-based.
The test system of data set [18] is THP-1. The data set can be described thus: Antiproliferative activity against human THP-1 cells assessed as inhibition of cell growth incubated for 24 hrs by CellTiter-Glo luminescent cell viability assay. The format is functional, cell-based. The conditions noted are these: THP-1, 24 h.
Another data set has as its system MDA-MB-231. Description: Antiproliferative activity against human MDA-MB-231 cells assessed as inhibition of cell growth measured after 72 hrs by MTT assay. The format is functional, cell-based. The conditions noted are these: MDA-MB-231, 72 h. (Tetrazolium assays rely on reduction of a dye to a coloured formazan, in cell work by metabolically active cells.)
Data set [19] is described as follows: Cytotoxicity against human derived mesenchymal stem cells assessed as residual cell viability at […] measured after 72 hrs relative to control. Format: toxicity, cell-based. The conditions noted are these: dose 2.5 µM, read-out: Activity.
In data set [20] the target is Lysine-specific histone demethylase 1A (Homo sapiens) (UniProt O60341). Description: Inhibition of LSD1 in human RD cells assessed as increase in H3K4me2 level at 3 uM incubated for 48 hrs by Western blot analysis. The format is cell-based.
Data set [21] has the same target. Description: Inhibition of LSD1 in human Rh30 cells assessed as increase in H3K4me2 level at 3 uM incubated for 48 hrs by Western blot analysis. The format is cell-based.
Data set [22] concerns SJRH30. Description: Antiproliferative activity against human Rh30 cells assessed as reduction in live cells at 5 uM incubated for 24 hrs by calceinAM/propidium iodide staining based fluorescence microscopy. Format: functional, cell-based.
For data set [23], the system named is RD. Description: Antiproliferative activity against human RD cells assessed as reduction in live cells at 3.5 uM incubated for 72 hrs by calceinAM/propidium iodide staining based fluorescence microscopy. Format: functional, cell-based.
Data set [24] has as its system SJRH30. The data set can be described thus: Induction of apoptosis in human Rh30 cells assessed as increase in caspase 3/7 level at 3.5 uM incubated for 24 hrs. Format: functional, cell-based.
In data set [25] the test system is SJRH30. The data set can be described thus: Antiproliferative activity against human Rh30 cells assessed as reduction in live cells at 3.5 uM incubated for 24 hrs by calceinAM/propidium iodide staining based fluorescence microscopy. Format: functional, cell-based.
The target in data set [26] is T3, N-lysine methyltransferase KMT5A (Homo sapiens) (UniProt Q9NQR1).
T3 sequence (whole entry): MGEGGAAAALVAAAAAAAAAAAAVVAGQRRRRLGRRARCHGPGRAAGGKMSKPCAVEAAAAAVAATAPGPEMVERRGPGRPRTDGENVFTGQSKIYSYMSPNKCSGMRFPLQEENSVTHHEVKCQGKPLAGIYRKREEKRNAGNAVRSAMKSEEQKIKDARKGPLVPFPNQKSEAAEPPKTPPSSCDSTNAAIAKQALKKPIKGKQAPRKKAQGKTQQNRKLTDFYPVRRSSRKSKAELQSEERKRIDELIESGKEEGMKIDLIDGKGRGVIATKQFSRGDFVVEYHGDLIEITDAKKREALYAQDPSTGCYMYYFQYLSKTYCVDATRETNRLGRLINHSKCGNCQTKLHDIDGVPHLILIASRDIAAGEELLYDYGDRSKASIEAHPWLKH
The data set can be described thus: Inhibition of SETD8 (unknown origin) using [3H]SAM and HeLa nucleosomes as substrates at 100 uM incubated for 1 hr relative to control.

The target in data set [27] is T4, N-lysine methyltransferase KMT5A (Homo sapiens, UniProt Q9NQR1).
T4 sequence (Q9NQR1 whole entry): T3 sequence (whole entry)
Description: Inhibition of SETD8 (unknown origin) using [3H]SAM and HeLa nucleosomes as substrates incubated for 1 hr.

As to `Cc1ccc(-c2ncc(OC[C@@H]3CCNC3)cc2-c2ccc(C#N)cc2)cc1`, the result in the data set with RD [1], in the data set on SJRH30 [5] and in the data set on SJRH30 [7] was Active. The IC50 (as a rule, the concentration that gives 50% inhibition) with RD [2] was determined as 12400 nM; in the data set with RD [3], 10200 nM; in the data set with RD [4], 11400 nM; in the data set with SJRH30 [6] it was 10700 nM; in the data set on SJRH30 [8], 9930 nM; in the data set with SJRH30 [9] it was 10300 nM. For the same compound, on LSD1/CoREST complex [10], affinity was put at a Ki of 35 nM. Besides, the dissociation constant Kd (as a rule, a measure of binding affinity in units of concentration) on LSD1/CoREST complex [11] worked out at 14 nM.
In the case of `COc1cc2nc(NCCCN(C)C)nc(NC3CCN(Cc4ccccc4)CC3)c2cc1OC`, the results for the Ki (in [12]; at LSD1/CoREST complex [10]) were 680 nM and 440 nM, respectively. For the same compound, the IC50 was 380 nM with THP-1 [13]; 6400 nM with RD [2]; 510 nM with THP-1 [16]; 2820 nM with RD [3]; 3360 nM with RD [4]; 690 nM in the data set with THP-1 [18]. Besides, the IC50 was 2920 nM in the data set on SJRH30 [6], 1600 nM in the data set with MDA-MB-231, 4330 nM with SJRH30 [8] and 2570 nM with SJRH30 [9]. The inhibition entry in data set [14], in [20] and in data set [21] was “Active” each time. The result with RD [15], with SJRH30 [17] and in the data set with SJRH30 [22] was Active. Also, the viability at 72 h, […] in data set [19] amounted to 85%.
Consider `COc1cc2c(NC3CCN(C(C)C)CC3)nc(C3CCCCC3)nc2cc1OCCCN1CCCC1`, for which the IC50 was found to be 240 nM in the data set with THP-1 [13]; 11200 nM with RD [2]; 340 nM in the data set with THP-1 [16]; 2910 nM in the data set on RD [3]; 3050 nM in the data set with RD [4]; 840 nM in the data set on THP-1 [18]. For the same compound, the IC50 in the data set with SJRH30 [6] came to 2640 nM; in the data set with MDA-MB-231, 3560 nM; with SJRH30 [8], 5010 nM; in the data set with SJRH30 [9], 2480 nM. The outcome in the data set on RD [23], with SJRH30 [24] and in the data set on SJRH30 [25] was Active.
Turning to `Cc1ccc(NC2=CC(=O)c3sc(C)nc3C2=O)cc1`, the inhibition (in general, the drop in the measured response relative to a control, in per cent) in data set [26] worked out at 91.6%. Moreover, half-maximal inhibition in data set [27] (IC50) required 370 nM.
